Measured values taken from patent publication US11293001B2, “Microfluidic cell culture systems” (9493662 Canada Inc., priority 2013, dated 2022).

How the values were obtained:
[1] = system: hippocampal and DRG axons; experiment: Axonal elastic modulus by AFM nano-indentation (modified Hertz model); type: cell-based, rat
Procedure: (§1) To minimize remodeling and maintain the parallel organization of the axons in the cultures, DRG neurons were cultured at a density four-times lower than hippocampal neurons and were tested within 7-10 days in culture, whereas hippocampal axons were tested after 14-18 days in culture.
Simultaneous compression and live imaging of single axons were performed on a Bioscope AFM mounted on an inverted optical microscope using a 100× objective (1.45 NA) and 1K charge-coupled device camera. Two different compression experiments were performed. In the first, a 20-mm polystyrene bead was fixed, see Reference [8], to the tip of silicon nitride probes with a nominal spring constant of k=0.01 N/m and used to compress axons with controlled force ranging from 0.1 nN≤F≤4 nN for different time periods. In the second, tipless n-type silicon probes with nominal spring constant of k=0.03 N/m were used to apply constant force to axons. […]
Modeling the underlying glass plane as a sphere with an infinite radius, then the term accounting for the deformation induced by the plane is negligible. Using the method of Reference [13] the δBead-Cylinder can be calculated using Equation (2) where γ is the Poisson ratio of the axon or the bead, E is the Young's modulus of the material, F is the total force applied, e is the eccentricity of the ellipse of contact, and K and

[2] = system: DRG and hippocampal axons; experiment: Immunocytochemistry: distribution of cytosolic components in axons with impaired transport; type: cell-based, rat
Procedure: as §1
Immunocytochemistry was performed as described in Reference [8] with mouse anti-tubulin, rabbit anti neurofilament, rabbit polyclonal anti-Tom20 (mitochondrial preprotein translocases of the outer membrane FL-145); and Alexa Fluor™ 488 conjugated phalloidin. The secondary antibodies used were Rhodamine Red antimouse IgG and Alexa Fluor™ 647 anti-rabbit IgG. Samples were imaged using a laser scanning confocal microscope with a 60× PlanApo oilimmersion objective on an inverted microscope.
To investigate the reason for the higher resistance of DRG axons to compression and to vinblastine effects, the inventors investigated the composition and distribution of cytosolic components in axons with impaired transport. […] The inventors analyzed the distribution of mitochondria, actin, neurofilament, and tubulin after blockade of axonal transport.

[3] = increasing vinblastine concentration
[4] = 1 hour treatment, FIG. 4C insert
[5] = increasing vinblastine concentrations, 1 hour
[6] = vinblastine 5 nM or 500 nM for 1 hour, fixed, AFM

vinblastine sulfate salt
average elastic modulus at 30% of indentation (EM30%) ([1]; 5 nM vinblastine, p<0.001): significantly decreased
slope of the elastic modulus curve as a function of percentage indentation [1, 3]: decreased proportionally with increasing vinblastine concentration
vinblastine concentration at which the volume of the non-FAS segment decreased (DRG axons; [4]): 500 nM
volume of single FAS (DRG axons; [5]): increased with increasing vinblastine concentrations
number and size of FAS (focal axonal swelling) (DRG axons; [6]): increased with increasing vinblastine concentrations
vinblastine concentration at which the volume of the non-FAS segment decreased (hippocampal axons; [4]): 5 nM
volume of single FAS (hippocampal axons; [5]): did not significantly change
number and size of FAS (focal axonal swelling) (hippocampal axons; [6]): increased with increasing vinblastine concentrations
tubulin and neurofilament aggregation at FAS [2, 3]: proportional increase
distribution of actin ([2]; vinblastine-treated axons): concentrated between FAS
distribution of mitochondria ([2]; vinblastine-treated axons): changed from uniform to a discontinuous punctate pattern
neurofilaments and microtubules ([2]; vinblastine-treated axons): collapsed and accumulated at FAS
